In series [1] the test system is Atlantic salmon (Salmo salar). The series is described as follows: Atlantic salmon transferred into CO saturated seawater. Here is the method:
(§1) Mackerel (Scomber scombrus) of about 700 g bodyweight were transferred from seawater into CO saturated seawater at about 16° C. in a 1 m×1 m plastic tank. CO saturation was achieved by pre-flushing the seawater (250 L) with 99.3% pure carbon monoxide (from Yara AS, Norway) for 5 minutes at 2.0 bar through two Wedge-lock diffusers (from Sterner Aqua, Norway). The CO content was monitored and never exceeded 50 ppm in the vicinity of the tank.
Atlantic salmon (Salmo salar) of 0.7 to 1.5 kg bodyweight were transferred from seawater into CO saturated seawater (as in Example 1).

The subject of series [2] is Mackerel (Scomber scombrus). The series is described as follows: Mackerel transferred into CO saturated seawater. Here is the method: as §1
The test system of series [3] is Atlantic halibut (Hippoglossus hippoglossus). Briefly: Atlantic halibut transferred into CO saturated seawater. How it is done:
as §1
Atlantic halibut (Hippoglossus hippoglossus) of about 1.5 kg bodyweight were transferred into CO saturated seawater (as in Example 1).

With `[C-]#[O+]` [carbon monoxide], the “further exposure time until fish died and turned belly up” value in series [1] (continued exposure after anaesthesia) was “more than one”; in series [2] (continued exposure after signs of fatigue) it was 5 min. For the same compound, the “time until fish were relaxed, sedated and finally anesthetised” value in series [1] (salmon 0.7 to 1.5 kg) is reported as “about 5 minutes”. Moreover, the “signs of stress or discomfort during exposure” value in series [1] (until anaesthesia) is on record as “no signs of stress or discomfort”. Also, the “time until fish showed signs of fatigue” value in series [2] (about 16° C., mackerel about 700 g) is “about 5 minutes”. Also, the “further exposure time until fish died” value in series [3] (continued exposure after loss of flight reaction) is “two”. Further, in series [3] (halibut about 1.5 kg), the “time until flight reaction was not pronounced” value is recorded as “about 2 minutes”.

Source of the values: US20110091638A1, “METHOD OF ANIMAL SLAUGHTER” (priority 2007, published 2011).
